# From US12441768B2, “Compositions and methods for treating endometriosis” (EndoMet Biosciences, Inc., priority 2018, dated 2025)
# Where a SMILES comes first, the peptide text is derived from it.
# Columns and labels:
# [1] = target: Wnt-responsive promoter (TCF/LEF); assay: Wnt-dependent luciferase reporter assay; assay type: cell-based, murine
# Method in brief: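 EC50 (uM) derived from inhibition of luminescence in Wnt3a-stimulated murine 3T3 cells expressing luciferase under a TCF/LEF promoter, with peptides added across a concentration range and vehicle as control.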
# [2] = % Viability non-Wnt responsive cells
# β-catenin = target: T1, β-catenin (Homo sapiens, UniProt P35222); assay: KD50 measurement using competitive fluorescence polarization (FP) with labelled TCF4; assay type: binding; conditions: fluorescence polarization, β-catenin; for Kd: read-out: β-Cat FP KD
# T1 sequence (P35222 1-781): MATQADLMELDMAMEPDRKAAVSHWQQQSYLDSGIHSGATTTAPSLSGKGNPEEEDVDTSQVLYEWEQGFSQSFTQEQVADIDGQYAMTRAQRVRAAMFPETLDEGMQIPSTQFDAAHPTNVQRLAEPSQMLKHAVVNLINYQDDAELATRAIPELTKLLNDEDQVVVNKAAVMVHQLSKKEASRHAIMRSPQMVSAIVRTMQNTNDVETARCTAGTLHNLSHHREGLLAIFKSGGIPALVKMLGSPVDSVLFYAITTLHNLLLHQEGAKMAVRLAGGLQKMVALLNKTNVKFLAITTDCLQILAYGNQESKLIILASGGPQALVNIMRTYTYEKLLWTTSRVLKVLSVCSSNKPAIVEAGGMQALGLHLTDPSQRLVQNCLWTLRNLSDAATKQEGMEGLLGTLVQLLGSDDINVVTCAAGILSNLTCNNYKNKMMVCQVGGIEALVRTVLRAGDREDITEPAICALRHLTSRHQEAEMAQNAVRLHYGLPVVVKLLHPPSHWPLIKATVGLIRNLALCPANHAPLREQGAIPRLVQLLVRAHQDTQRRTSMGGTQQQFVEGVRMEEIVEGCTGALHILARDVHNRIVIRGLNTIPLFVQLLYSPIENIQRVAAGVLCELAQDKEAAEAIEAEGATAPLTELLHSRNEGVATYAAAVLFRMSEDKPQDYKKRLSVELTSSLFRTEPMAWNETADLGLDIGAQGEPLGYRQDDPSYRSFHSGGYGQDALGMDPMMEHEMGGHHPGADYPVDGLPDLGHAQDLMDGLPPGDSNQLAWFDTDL
# Method in brief: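 Labelled TCF4 (5 nM) mixed with 100 nM β-catenin at room temperature; inhibitor added as serial dilutions from 10 nM to 30 uM. Polarization read at excitation 470 nm/emission 520 nm; binding displacement lowers polarization. Three independent runs.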
SMILES,EC50 [1],β-Cat FP Hill slope (β-catenin),Kd (β-catenin),viability [2]
CC[C@H](C)[C@H](NC(=O)[C@H](CC(C)C)NC(=O)[C@H](Cc1ccccc1)NC(=O)[C@H](Cc1c[nH]c2ccccc12)NC(=O)[C@H](CCSC)NC(=O)[C@H](CCCNC(=N)N)NC(=O)[C@H](CO)NC(=O)[C@@H](N)CCSC)C(=O)N[C@@H](CO)C(=O)N[C@@H](CO)C(=O)N[C@@H](Cc1c[nH]c2ccccc12)C(=O)NCC(=O)O [compound 54] (H-MSRMWFLISSWG-OH),15 to 22.5 µM,0.7,1 to 10 µM,98.3%
CC[C@H](C)[C@H](NC(=O)[C@H](CC(C)C)NC(=O)[C@H](Cc1ccccc1)NC(=O)[C@H](Cc1c[nH]c2ccccc12)NC(=O)[C@@H](NC(=O)[C@H](CCCNC(=N)N)NC(=O)[C@H](CO)NC(=O)[C@@H](N)CCSC)[C@@H](C)CC)C(=O)N[C@@H](CO)C(=O)N[C@@H](Cc1ccccc1)C(=O)N[C@@H](Cc1c[nH]c2ccccc12)C(=O)NCC(=O)O [compound 55] (H-MSRIWFLISFWG-OH),< 7.5 µM,,> 30 µM,101%
CSCC[C@H](NC(=O)[C@H](CCCNC(=N)N)NC(=O)[C@H](CO)NC(=O)[C@@H](N)CCSC)C(=O)N[C@@H](Cc1c[nH]c2ccccc12)C(=O)N[C@@H](Cc1ccccc1)C(=O)N[C@@H](CC(C)C)C(=O)N[C@H](C(=O)N[C@@H](CO)C(=O)N[C@@H](Cc1ccccc1)C(=O)N[C@@H](Cc1c[nH]c2ccccc12)C(=O)NCC(=O)O)C(C)C [compound 56] (H-MSRMWFLVSFWG-OH),7.5 to 15 µM,,> 30 µM,100%
CC[C@H](C)[C@H](NC(=O)[C@H](CC(C)C)NC(=O)[C@H](Cc1ccccc1)NC(=O)[C@H](Cc1c[nH]c2ccccc12)NC(=O)[C@H](CCSC)NC(=O)[C@H](CCCNC(=N)N)NC(=O)[C@H](CO)NC(=O)[C@@H](N)CCSC)C(=O)N[C@@H](CO)C(=O)N[C@@H](Cc1ccccc1)C(=O)N[C@@H](Cc1c[nH]c2ccccc12)C(=O)N[C@@H](CCC(=O)O)C(=O)NCC(=O)O [compound 57] (H-MSRMWFLISFWEG-OH),< 7.5 µM,0.7,1 to 10 µM,104%
CC[C@H](C)[C@H](NC(=O)[C@H](CC(C)C)NC(=O)[C@H](Cc1ccccc1)NC(=O)[C@H](Cc1c[nH]c2ccccc12)NC(=O)[C@H](CCSC)NC(=O)[C@H](CCCNC(=N)N)NC(=O)[C@H](CO)NC(=O)[C@@H](N)CCSC)C(=O)N[C@@H](CO)C(=O)N[C@@H](Cc1ccccc1)C(=O)N[C@@H](Cc1c[nH]c2ccccc12)C(=O)N[C@@H](CCCNC(=N)N)C(=O)NCC(=O)O [compound 58] (H-MSRMWFLISFWRG-OH),22.5 to 30 µM,,> 30 µM,106%
CC[C@H](C)[C@H](NC(=O)[C@H](CC(C)C)NC(=O)[C@H](Cc1ccccc1)NC(=O)[C@H](Cc1c[nH]c2ccccc12)NC(=O)[C@H](CCCCN)NC(=O)[C@H](CCCNC(=N)N)NC(=O)[C@H](CO)NC(=O)[C@@H](N)CCSC)C(=O)N[C@@H](CO)C(=O)N[C@@H](Cc1ccccc1)C(=O)N[C@@H](Cc1c[nH]c2ccccc12)C(=O)NCC(=O)O [compound 59] (H-MSRKWFLISFWG-OH),> 30 µM,,> 30 µM,102%
CC[C@H](C)[C@H](NC(=O)[C@H](CC(C)C)NC(=O)[C@H](CC(C)C)NC(=O)[C@H](Cc1c[nH]c2ccccc12)NC(=O)[C@H](CCSC)NC(=O)[C@H](CCCNC(=N)N)NC(=O)[C@H](CO)NC(=O)[C@@H](N)CCSC)C(=O)N[C@@H](CO)C(=O)N[C@@H](Cc1ccccc1)C(=O)N[C@@H](Cc1c[nH]c2ccccc12)C(=O)NCC(=O)O [compound 60] (H-MSRMWLLISFWG-OH),7.5 to 15 µM,,> 30 µM,101%
CC[C@H](C)[C@H](NC(=O)[C@H](CC(C)C)NC(=O)[C@H](Cc1ccccc1)NC(=O)[C@H](Cc1c[nH]c2ccccc12)NC(=O)[C@H](CCSC)NC(=O)[C@H](CCCNC(=N)N)NC(=O)[C@H](CC(N)=O)NC(=O)[C@@H](N)CCSC)C(=O)N[C@@H](CO)C(=O)N[C@@H](Cc1ccccc1)C(=O)N[C@@H](Cc1c[nH]c2ccccc12)C(=O)NCC(=O)O [compound 61] (H-MNRMWFLISFWG-OH),7.5 to 15 µM,,> 30 µM,100%
CSCC[C@H](NC(=O)[C@H](CCCNC(=N)N)NC(=O)[C@H](CO)NC(=O)[C@@H](N)CCSC)C(=O)N[C@@H](Cc1c[nH]c2ccccc12)C(=O)N[C@@H](Cc1ccccc1)C(=O)N[C@@H](CC(C)C)C(=O)N[C@H](C(=O)N[C@@H](CO)C(=O)N[C@@H](Cc1ccccc1)C(=O)N[C@@H](Cc1c[nH]c2ccccc12)C(=O)NCC(=O)O)[C@@H](C)O [compound 62] (H-MSRMWFLTSFWG-OH),> 30 µM,,> 30 µM,104%
CSCC[C@H](NC(=O)[C@H](CCCNC(=N)N)NC(=O)[C@H](CO)NC(=O)[C@@H](N)CCSC)C(=O)N[C@@H](Cc1c[nH]c2ccccc12)C(=O)N[C@@H](Cc1ccccc1)C(=O)N[C@@H](CC(C)C)C(=O)N[C@@H](Cc1ccccc1)C(=O)N[C@@H](CO)C(=O)N[C@@H](Cc1ccccc1)C(=O)N[C@@H](Cc1c[nH]c2ccccc12)C(=O)NCC(=O)O [compound 63] (H-MSRMWFLFSFWG-OH),< 7.5 µM,,> 30 µM,97.9%

# Now from value to compound, other results behind:
EC50 [1],β-Cat FP Hill slope (β-catenin),Kd (β-catenin),SMILES,viability [2]
7.5 to 15 µM,0.7,1 to 10 µM,CC[C@H](C)[C@H](NC(=O)[C@H](CC(C)C)NC(=O)[C@H](Cc1ccccc1)NC(=O)[C@H](Cc1c[nH]c2ccccc12)NC(=O)[C@@H](NC(=O)[C@H](CCCNC(=N)N)NC(=O)[C@H](CO)NC(=O)[C@@H](N)CCSC)C(C)C)C(=O)N[C@@H](CO)C(=O)N[C@@H](Cc1ccccc1)C(=O)N[C@@H](Cc1c[nH]c2ccccc12)C(=O)NCC(=O)O [compound 64] (H-MSRVWFLISFWG-OH),104%
> 30 µM,0.7,1 to 10 µM,CC[C@H](C)[C@H](NC(=O)[C@@H]1CCCN1C(=O)[C@H](Cc1ccccc1)NC(=O)[C@H](Cc1c[nH]c2ccccc12)NC(=O)[C@H](CCSC)NC(=O)[C@H](CCCNC(=N)N)NC(=O)[C@H](CO)NC(=O)[C@@H](N)CCSC)C(=O)N[C@@H](CO)C(=O)N[C@@H](Cc1ccccc1)C(=O)N[C@@H](Cc1c[nH]c2ccccc12)C(=O)NCC(=O)O [compound 65] (H-MSRMWFPISFWG-OH),105%
7.5 to 15 µM,0.7,10 to 30 µM,CC[C@H](C)[C@H](NC(=O)[C@H](CC(C)C)NC(=O)[C@H](Cc1ccc(O)cc1)NC(=O)[C@H](Cc1c[nH]c2ccccc12)NC(=O)[C@H](CCSC)NC(=O)[C@H](CCCNC(=N)N)NC(=O)[C@H](CO)NC(=O)[C@@H](N)CCSC)C(=O)N[C@@H](CO)C(=O)N[C@@H](Cc1ccccc1)C(=O)N[C@@H](Cc1c[nH]c2ccccc12)C(=O)NCC(=O)O [compound 66] (H-MSRMWYLISFWG-OH),98.6%
< 7.5 µM,0.99,1 to 10 µM,CC[C@H](C)[C@H](NC(=O)[C@H](CC(C)C)NC(=O)[C@H](Cc1ccccc1)NC(=O)[C@H](Cc1c[nH]c2ccccc12)NC(=O)[C@H](CCSC)NC(=O)[C@H](CCCNC(=N)N)NC(=O)CNC(=O)[C@@H](N)CCSC)C(=O)N[C@@H](CO)C(=O)N[C@@H](Cc1ccccc1)C(=O)N[C@@H](Cc1c[nH]c2ccccc12)C(=O)NCC(=O)O [compound 67] (H-MGRMWFLISFWG-OH),101%
7.5 to 15 µM,,> 30 µM,CC[C@H](C)[C@H](NC(=O)[C@H](CC(C)C)NC(=O)[C@H](Cc1ccccc1)NC(=O)[C@H](Cc1c[nH]c2ccccc12)NC(=O)[C@H](CCSC)NC(=O)[C@H](CCCNC(=N)N)NC(=O)[C@H](CO)NC(=O)[C@@H](N)CCSC)C(=O)N[C@@H](CO)C(=O)N[C@@H](CC(C)C)C(=O)N[C@@H](Cc1c[nH]c2ccccc12)C(=O)NCC(=O)O [compound 68] (H-MSRMWFLISLWG-OH),91.2%
> 30 µM,1.64,< 0.4 µM,CC[C@H](C)[C@H](NC(=O)[C@H](CC(C)C)NC(=O)[C@H](Cc1ccccc1)NC(=O)[C@H](Cc1c[nH]c2ccccc12)NC(=O)[C@H](CCSC)NC(=O)[C@H](CCCNC(=N)N)NC(=O)[C@H](CO)NC(=O)[C@@H](N)CCSC)C(=O)N[C@@H](CO)C(=O)N[C@@H](Cc1ccccc1)C(=O)N[C@@H](CCCNC(=N)N)C(=O)NCC(=O)O [compound 69] (H-MSRMWFLISFRG-OH),99.7%
